Reference: patent US10568933B2, “Beta-casein A2 and blood glucose levels” (THE A2 MILK COMPANY LIMITED, priority 2013, dated 2020)

System: SH-SY5Y cells
Assay: Effect of BCM-7 on DNA methylation levels (MBD-seq)
Assay type: cell-based, human
Settings: 1 μM, 4 hours
Description: Shifts in global DNA methylation patterns induced by BCM-7 were investigated using methyl-CpG binding domain (MBD) protein-enriched genome sequencing (MBD-seq) as described previously (Trivedi M., et al., Mol. Pharm. 2014), whereas mRNA translation microarray data was obtained using an Agilent V3 microarray chip, from non-treated control SH-SY5Y cells and cells treated for 4 hours with 1 μM BCM-7.
Genomic DNA was extracted from samples using the Easy DNA kit (Invitrogen K1800-01) using the appropriate protocol for cell lines. Fragmentation was performed on a Covaris S2 ultrasonicator using the following settings: duty cycle 10%, intensity 5, 200 cycles per burst during 200 sec. Fragments were obtained having an average length of 200 bp. The power mode is frequency sweeping, temperature 6-8° C., water level 12. […] DNA with an input from […] was analysed on the Agilent 2100 using a DNA 1000 chip. […] The concentrations of fragmented and captured DNA were determined on a Fluostar Optima plate reader with the Quant-iT PicoGreen dsDNA Assay Kit (Invitrogen P7589) at 480/520 nm. […]
The Illumina library amplification index protocol was used with the following alterations: 22 μl DNA was used and performed 21 cycles run. […] 1 μl was applied to an Agilent 2100 HS DNA chip and the concentration was determined by smear analysis on the Agilent 2100. […]

Substance: beta-casomorphin-7 [BCM-7]
- Epigenetic status (DNA methylation) of genes responsible for glucose metabolism, synthesis and glucose homeostasis: altered
